# Measurements reported in patent US20110305784A1, “Fractionated products obtained from gamboge resin, and medical uses of the same” (priority 2010, published 2011).
# Like-named read-outs stand apart in the source and are kept apart here.
# Columns and labels:
# [1] = tested on: Human umbilical venal epithelial cell (HUVEC); test: in vitro; conditions: HUVEC; for IC50: Homo sapiens
# From the text: (§1) The in vitro anti-cancer test was primarily used to detect the effect of a candidate drug on cancer cell proliferation. The working principle involved therein is the ability of viable cells to shift alamarBlue (AbD Serotec, UK) from its originally non-fluorescent oxidized state (non-fluorescent, blue) to a reduced form (fluorescent, red) having fluorescence via metabolic reaction. According to the fluorescent data result generated by the alamarBlue reagent thus obtained, the proliferation of the viable cells and cell activity can be quantified for detection.
# (§2) In the in vitro anti-cancer tests, a candidate drug was tested at 5 different concentrations of 0.01, 0.1, 1, 10, and 100 μg/ml, and six human cancer cell lines and a normal human cell line were used (see Table 10).
# [2] = tested on: Human histocytic lymphoma cell U937; test: cells; conditions: for CC50: U-937, read-out: LC50 (50% lethal concentration)
# From the text: as §1, §2
# [3] = tested on: Human breast adenocarcinoma cell MCF7; test: cells; conditions: for CC50: MCF7, read-out: LC50 (50% lethal concentration)
# From the text: as §1, §2
# in vitro = conditions: human
# From the text: as §1, §2
# [4] = tested on: Human colon adenocarcinoma cell HT-29; test: cells; conditions: for CC50: HT-29, read-out: LC50 (50% lethal concentration)
# From the text: as §1, §2
# [5] = tested on: Human hepatocellular carcinoma cell HepG2; test: cells; conditions: for CC50: HepG2, read-out: LC50 (50% lethal concentration)
# From the text: as §1, §2
# [6] = tested on: Human lung carcinoma cell A549; test: cells; conditions: for CC50: A549, read-out: LC50 (50% lethal concentration)
# From the text: as §1, §2
# [7] = tested on: Human promyelocytic leukemia cell HL-60; test: cells; conditions: for CC50: HL-60, read-out: LC50 (50% lethal concentration)
# From the text: as §1, §2
# [8] = MCF7, read-out: IC50 (50% inhibition concentration)
# [9] = U-937, read-out: IC50 (50% inhibition concentration)
# [10] = HL-60, read-out: IC50 (50% inhibition concentration)
# [11] = read-out: IC50 (50% inhibition concentration), HUVEC
# [12] = HT-29, read-out: IC50 (50% inhibition concentration), HT-29
# [13] = U-937, read-out: IC50 (50% inhibition concentration), U937
# [14] = HepG2, read-out: IC50 (50% inhibition concentration), HepG2
# [15] = A549, read-out: IC50 (50% inhibition concentration), A549
# [16] = HL-60, read-out: IC50 (50% inhibition concentration), HL-60
# [17] = MCF7, read-out: IC50 (50% inhibition concentration), MCF-7
SMILES,LC50 (50% lethal concentration) [1] [µg/mL],CC50 [2] [µg/mL],CC50 [4] [µg/mL],CC50 [5] [µg/mL],CC50 [6] [µg/mL],CC50 [7] [µg/mL],CC50 [3] [µg/mL],"IC50 [7, 10] [µg/mL]",also measured
"CC(C)=CCC[C@]1(C)C[C@H](O)c2c(O)c3c(c(CC=C(C)C)c2O1)O[C@]12C(=C[C@@H]4CC1C(C)(C)O[C@]2(C/C=C(/C)C(=O)O)C4=O)C3=O (stereo in doubt) [Gh-2641-1, neogambogic acid]",4.3,1,–,–,–,–,–,–,"IC50 [3, 8]: 0.2 µg/mL"
"CC(C)=CCC[C@@]1(C)C=Cc2c(O)c3c(c(CC(O)C(C)(C)O)c2O1)O[C@]12C(=C[C@@H]4CC1C(C)(C)OC2(C/C=C(/C)C(=O)O)C4=O)C3=O (stereo partly shown) [Gh-1036, epiformoxanthone F]",–,0.81,12,8.6,0.52,3.1,3.8,–,CC50 (in vitro): 4.8 µg/mL
"C=C(C)C1CC[C@@]2(C)Oc3c(CC=C(C)C)c4c(c(O)c3[C@@H]1C2O)C(=O)C1=C[C@@H]2CC3C(C)(C)OC(C/C=C(/C)C(=O)O)(C2=O)[C@@]13O4 (stereo partly drawn) [Gh-1050, 3α-hydroxygambogellic acid]",–,2.3,7.7,3.8,0.74,7,1,0.17,"IC50 ([1]; read-out: IC50 (50% inhibition concentration)): 0.78 µg/mL; CC50 (in vitro): 3.4 µg/mL; IC50 ([4]; HT-29, read-out: IC50 (50% inhibition concentration)): 4.8 µg/mL; IC50 [2, 9]: 0.21 µg/mL; IC50 ([5]; HepG2, read-out: IC50 (50% inhibition concentration)): 1.1 µg/mL; IC50 ([6]; A549, read-out: IC50 (50% inhibition concentration)): 0.13 µg/mL; IC50 [3, 8]: 0.14 µg/mL"
"CC(C)=CCC[C@]1(C)C=Cc2c(O)c3c(c(CC(O)C(C)(C)O)c2O1)O[C@]12C(=C[C@@H]4CC1C(C)(C)OC2(C/C=C(/C)C(=O)O)C4=O)C3=O (stereo partly shown) [Gh-1052, formoxanthone F]",–,0.69,5.7,4,2.5,3.4,2.4,–,CC50 (in vitro): 3.1 µg/mL
"CC(C)=CCC[C@]1(C)C=Cc2c(O)c3c(c(CC=C(C)C)c2O1)O[C@]12C(=C[C@@H]4CC1C(C)(C)O[C@]2(C/C=C(/CO)C(=O)O)C4=O)C3=O [Gh-1601-A, 30-hydroxygambogic acid]",–,0.28,0.77,4.1,6.6,3,4.4,–,"IC50 [1, 11]: 0.19 µg/mL; IC50 [4, 12]: 0.17 µg/mL; IC50 [2, 13]: 0.09 µg/mL; IC50 [5, 14]: 1.3 µg/mL; IC50 [6, 15]: 0.11 µg/mL; IC50 [7, 16]: 0.56 µg/mL; IC50 [3, 17]: 0.72 µg/mL"
"CC(C)=CCC[C@@]1(C)C=Cc2c(O)c3c(c(CC=C(C)C)c2O1)O[C@]12C(=C[C@@H]4CC1C(C)(C)O[C@]2(C/C=C(/CO)C(=O)O)C4=O)C3=O [Gh-1602, 30-hydroxyepigambogic acid]",–,0.69,4.2,3.5,3.7,3.3,4,–,"IC50 [1, 11]: 0.25 µg/mL; IC50 [4, 12]: 0.94 µg/mL; IC50 [2, 13]: 0.14 µg/mL; IC50 [5, 14]: 1.3 µg/mL; IC50 [6, 15]: 0.4 µg/mL; IC50 [7, 16]: 1 µg/mL; IC50 [3, 17]: 0.27 µg/mL"
"CC(C)=CCC[C@]1(C)C=Cc2c(O)c3c(c(CC=C(C)C)c2O1)O[C@]12C(=C[C@@H]4CC1C(C)(C)O[C@]2(C/C=C(\C)C(=O)O)C4=O)C3=O [Gh-1641, isogambogic acid]",1.3,–,–,–,3,–,–,8,–
"CC(C)=CCC[C@@]1(C)C=Cc2c(O)c3c(c(CC=C(C)C)c2O1)O[C@]12C(=C[C@@H]4CC1C(C)(C)O[C@]2(C/C=C(\C)C(=O)O)C4=O)C3=O [Gh-1642, epiisogambogic acid]",1.3,–,–,–,–,–,–,6,–
"CC(C)=CCc1c2c(c(O)c3c1O[C@]14C(=C[C@@H]5CC1C(C)(C)O[C@]4(C/C=C(\C)C=O)C5=O)C3=O)C=CC(C)(C)O2 [Gh-2501, isomorellin]",1.8,–,4,–,–,4,–,1,"IC50 [2, 9]: 0.9 µg/mL"
"CC(C)=CCC/C(C)=C/Cc1c(O)c(CC=C(C)C)c2c(c1O)C(=O)C1=C[C@@H]3CC4C(C)(C)O[C@](C/C=C(/C)C(=O)O)(C3=O)[C@@]14O2 [Gh-2505, gambogenic acid]",2.3,–,–,–,–,–,–,–,–
"C=C(C)[C@@H]1CC[C@@]2(C)CC1c1c(O)c3c(c(CC=C(C)C)c1O2)O[C@]12C(=C[C@@H]4CC1C(C)(C)O[C@]2(/C=C/C(C)C(=O)O)C4=O)C3=O (stereo partly drawn) [Gh-2507, β-epigambogellic acid]",21.0,–,–,–,–,–,–,0.2,–
